Target: P2X7 receptor (Homo sapiens (Human), UniProt Q99572)
Test: P2X7 FLIPR assay: antagonism of BzATP response in 293 HEK cells stably expressing P2X7 receptor
Format: cell-based
Conditions: FLIPR fluorescence (Fluo-4), agonist BzATP, 293 HEK cells stably transfected with P2X7 receptor
Summary of the method: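 Antagonist IC50 derived from FLIPR Tetra Fluo-4 calcium signal evoked by BzATP. Compound pre-incubation was 30 min at room temperature on P2X7-expressing HEK293 cells, seeded 24 h before in low-serum medium and dye-loaded 30 min at 37 °C then 30 min at RT.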

P2X7 receptor, sequence (Q99572 whole entry): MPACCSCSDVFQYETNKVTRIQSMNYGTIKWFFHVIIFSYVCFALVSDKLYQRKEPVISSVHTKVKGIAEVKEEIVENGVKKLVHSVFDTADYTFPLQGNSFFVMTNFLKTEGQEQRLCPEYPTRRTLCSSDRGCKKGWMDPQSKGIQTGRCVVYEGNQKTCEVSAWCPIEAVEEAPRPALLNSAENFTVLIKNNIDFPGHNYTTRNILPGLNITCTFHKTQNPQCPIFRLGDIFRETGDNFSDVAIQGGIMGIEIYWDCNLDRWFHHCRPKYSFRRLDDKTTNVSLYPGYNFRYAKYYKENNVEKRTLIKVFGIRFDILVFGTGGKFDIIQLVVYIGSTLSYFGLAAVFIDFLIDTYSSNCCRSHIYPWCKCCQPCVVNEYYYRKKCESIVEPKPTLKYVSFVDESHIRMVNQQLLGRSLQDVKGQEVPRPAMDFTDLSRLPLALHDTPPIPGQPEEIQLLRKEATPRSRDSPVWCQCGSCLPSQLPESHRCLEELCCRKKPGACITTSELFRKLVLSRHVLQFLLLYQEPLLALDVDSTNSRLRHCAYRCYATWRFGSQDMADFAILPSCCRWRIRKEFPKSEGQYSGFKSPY

Compound | IC50 [nM]
O=C(NCC(c1cnc(C(F)(F)F)nc1)N1CCC(F)(F)CC1)c1cccc(F)c1Cl (single isomer, unassigned; (-)) [(−)2-chloro-N-[2-(4,4-difluoro-1-piperidyl)-2-[2-(trifluorom] [(−)2-chloro-N-(2-(4,4-difluoropiperidin-1-yl)-2-(2-(trifluoromethyl)pyrimidin-5-yl)ethyl)-3-fluorobenzamide] | 4.2
Cc1ncc(C(CNC(=O)c2cccc(OC(F)(F)F)c2Cl)N2CCC(F)(F)CC2)cn1 (single isomer, unassigned; (+)) [(+)2-chloro-N-[2-(4,4-difluoro-1-piperidyl)-2-(2-methylpyrim] [(+)2-chloro-N-(2-(4,4-difluoropiperidin-1-yl)-2-(2-methylpyrimidin-5-yl)ethyl)-3-(trifluoromethoxy)benzamide] | 21
CCc1ncc(C(CNC(=O)c2c(F)cccc2Cl)N2CCC(F)(F)CC2)cn1 (single isomer, unassigned; (+)) [(+)2-chloro-N-[2-(4,4-difluoro-1-piperidyl)-2-(2-ethylpyrimi] [(+)2-chloro-6-fluoro-N-(2-(4,4-difluoropiperidin-1-yl)-2-(2-ethylpyrimidin-5-yl)ethyl)benzamide] | 14

These reach a lower IC50. Values come first.

IC50 [nM] | Compound
2 | O=C(NCC(c1ccc(C(F)(F)F)nc1)N1CCOCC1)c1cccc(Cl)c1Cl (single isomer, unassigned; (-)) [(−)2,3-dichloro-N-[2-morpholino-2-[6-(trifluoromethyl)-3-pyr] [(−)2,3-Dichloro-N-[2-morpholino-2-[6-(trifluoromethyl)-3-pyridyl]ethyl]benzamide]
1.9 | COc1cccc(C(=O)NCC(c2ccc(C(F)F)nc2)N2CCC(F)(F)CC2)c1Cl (single isomer, unassigned; (-)) [(−)2-chloro-N-[2-[6-(difluoromethyl)-3-pyridyl]-2-(4,4-diflu] [(−)2-chloro-3-methoxy-N-(2-(2-(difluoromethyl)pyridin-5-yl)-2-(4,4-difluoropiperidin-1-yl)ethyl)benzamide]
2.6 | Cc1ncc(C(CNC(=O)c2cccc(Cl)c2Cl)N2CC(F)(F)C(F)(F)C2)cn1 (stereo not drawn) [2,3-dichloro-N-(2-(2-methylpyrimidin-5-yl)-2-(3,3,4,4-tetrafluoropyrrolidin-1-yl)ethyl)benzamide]
